Test results reported in patent publication US20230303569A1, “HETEROCYCLIC COMPOUNDS AS THERAPEUTIC AGENTS” (Arisan Therapeutics Inc., priority 2021, published 2023).
Where two headings read alike, the source gives them in different places.

Columns and labels:
Format in all cases: cell-based
[1] = molecular target: T1, human Nav1.5 (late current) (Homo sapiens, UniProt Q14524); assay: Nav1.5 Late Current Assay (QPatch HT whole-cell patch clamp, 30 nM ATX-II); settings: HEK293 cells stably expressing human Nav1.5, pH 7.3, late current with 30 nM ATX-II, read-out: percent inhibition hNav1.5 Late (5 uM)
T1 construct: host or cells: HEK293
Experimental: (§1) In vitro Na+ Current Inhibition Assays were performed by Eurofins Discovery (St Charles, MO). All compound functional activity determinations were determined through electrophysiological analyses of Na+ currents in HEK293 cells expressing a stably transfected Na+ channel (human Nav1.1, 1.2, 1.3, 1.5, 1.6, 1.7, or 1.8). After harvesting with Accutase cells are maintained in serum free medium at room temperature prior to electrophysiological recording utilizing the QPatch HT automated whole-cell patch-clamp platform (Sophion Bioscience, Woburn MA). Stock solution aliquots of the test compound are prepared in DMSO at 300× the final assay concentrations, and stored at −20° C. until the day of assay. On the day of the assay, an aliquot of the stock solution is thawed and diluted into external solution (137 mM NaCl, 4 mM KCl, 1 mM MgCl2, 1.8 mM CaCl2, 10 mM HEPES, 10 mM Glucose (pH 7.3, titrated with 10M NaOH) to make final test concentrations. A final concentration of 0.33% DMSO is maintained for each concentration of the assay compounds. Internal solution for recordings of Na+ consist consists of 100 mM CsF, 45 mM CsCl, 5 mM NaCl, 10 mM HEPES, 5 mM EGTA (pH 7.3, titrated with 1M CsOH).
Onset and steady state induction of late Nav1.5 current was measured using a pulse pattern, repeated every 5 sec, consisting of a hyperpolarizing pulse to −120 mV for a 200 ms duration, depolarization to −15 mV amplitude for a 40 ms duration, followed by step to 40 mV for 200 ms and finally a 100 ms ramp (1.2 V/s) to a holding potential of −80 mV. Each concentration of compound was applied for 5 minutes. The assay was performed at room temperature. After establishing vehicle control condition, all further addition of external solutions contain 30 nM ATX-II to activate late currents. Each concentration of compound was also co-applied with 30 nM ATXII to estimate the Nav1.5 late current inhibition. […]. ATXII was used as the agonist positive control and was tested concurrently with the test compound. Ranolazine was used as the positive control and was tested concurrently with the test compound.
Nav1.5 late current was measured as the total charge flowing through the Nav1.5 channels (area under the curve) 5 ms after the Nav1.5 peak current till the end of the test pulse and as charge at their maxima during the ramp. Individual cell results were normalized to their respective vehicle control and the results were averaged. The sodium current was assessed in 30 nM ATXII as vehicle control conditions and then at the end of each five (5) minute compound application in the presence of 30 nM ATXII. Individual cell result was normalized to 30 nM ATXII vehicle control amplitude and the mean±SEM calculated for each compound concentration.

[2] = molecular target: T2, human Nav1.5 (peak current) (Homo sapiens, UniProt Q14524); assay: Nav1.5 Peak Current Assay (QPatch HT whole-cell patch clamp); settings: HEK293 cells stably expressing human Nav1.5, pH 7.3, peak current at step to -15 mV, read-out: percent inhibition hNav1.5 Peak (5 uM)
T2 construct: host or cells: HEK293
Experimental: as §1
Onset and steady state block of peak Nav1.5 current was measured using a pulse pattern, repeated every 5 sec, consisting of a hyperpolarizing pulse to −120 mV for a 200 ms duration, depolarization to -15 mV amplitude for a 40 ms duration, followed by step to 40 mV for 200 ms and finally a 100 ms ramp (1.2 V/s) to a holding potential of −80 mV. Peak current was measured during the step to −15 mV.
Each concentration of compound was applied for 5 minutes. The assay was performed at room temperature and Tetracaine was used concurrently as a positive control. Only current amplitudes in excess of 200 pA at the control stage were analyzed. The amplitude of the sodium current was calculated by measuring the difference between the peak inward current on stepping to −15 mV (i.e. peak of the current) and the leak current. The sodium current was assessed in vehicle control conditions and then at the end of each five (5) minute compound application. Individual cell result was normalized to the vehicle control amplitude and the mean±SEM calculated for each compound concentration.

human Nav1.1 = molecular target: T3, human Nav1.1 (Homo sapiens, UniProt P35498); assay: Two pulse assay protocol, Nav1.1; settings: peak current
T3 construct: host or cells: HEK293
Experimental: (§2) In vitro Na+ Current Inhibition Assays were performed by Eurofins Discovery (St Charles, MO). All compound functional activity determinations were determined through electrophysiological analyses of Na+ currents in HEK293 cells expressing a stably transfected Na+ channel (human Nav1.1, 1.2, 1.3, 1.5, 1.6, 1.7, or 1.8). After harvesting with Accutase cells are maintained in serum free medium at room temperature prior to electrophysiological recording utilizing the QPatch HT automated whole-cell patch-clamp platform (Sophion Bioscience, Woburn MA). […]
(§3) Two pulse assay protocol for human Nav1.1, 1.2, 1.3, 1.5, 1.6, 1.7, and 1.8 channels. […] Onset and steady state block of the sodium channel was measured using a pulse pattern, repeated every 20 seconds (s) from a holding potential of −120 mV for 100 ms, and then pulsed to 0 mV for 500 ms to inactivate the Na channels and facilitate inactivated state-dependent binding of the test compounds. […] Peak current was measured during the step to 0 mV at pulse 1 and 2 to measure tonic and state-dependent inhibition. Compound activities were assessed by dividing post current amplitude (at the end of each five (5) minute compound application) by the vehicle control amplitude and the mean calculated for each compound concentration. […] Current amplitudes in excess of 200 pA at the control stage were analyzed. […]

human Nav1.2 = molecular target: T4, human Nav1.2 (Homo sapiens, UniProt Q99250); assay: Two pulse assay protocol, Nav1.2; settings: peak current
T4 construct: host or cells: HEK293
Experimental: as §1
(§4) Two pulse assay protocol for human Nav1.1, 1.2, 1.3, 1.5, 1.6, 1.7, and 1.8 channels. Mammalian cultured cells expressing the indicated human Nav1.1, 1.2, 1.3, 1.5, 1.6, 1.7 or 1.8 channels were assayed using the The QPatch HT (Sophion Bioscience, Woburn MA) automated system with an intracellular solution (mM) of 100 CsF, 45 CsCl, 5 NaCl, 10 HEPES, 5 EGTA (pH 7.3, titrated with 1M CsOH) and extracellular solution (mM) of 137 NaCl, 4 KCl, 1 MgCl2, 1.8 CaCl2, 10 HEPES, 10 Glucose (pH 7.3, titrated with 10M NaOH). Onset and steady state block of the sodium channel was measured using a pulse pattern, repeated every 20 seconds (s) from a holding potential of −120 mV for 100 ms, and then pulsed to 0 mV for 500 ms to inactivate the Na channels and facilitate inactivated state-dependent binding of the test compounds. The cell membranes were then stepped back to −120 mV for 10 ms to recover from inactivation into resting or closed state (channels with test compound bound to them will not recover from inactivation and will not open) before stepping to 0 mV for 50 ms (pulse 2) to measure Na channels that are available to open. Peak current was measured during the step to 0 mV at pulse 1 and 2 to measure tonic and state-dependent inhibition. Compound activities were assessed by dividing post current amplitude (at the end of each five (5) minute compound application) by the vehicle control amplitude and the mean calculated for each compound concentration. Tetracaine was used as a positive control and was tested concurrently with the test compounds. Current amplitudes in excess of 200 pA at the control stage were analyzed. The amplitude of the current was calculated by measuring the difference between the peak inward current on stepping to 0 mV (i.e. peak of the current) and remaining current at the end of the step. The current was assessed in vehicle control conditions and then at the end of each five (5) minute compound application.

human Nav1.3 = molecular target: T5, human Nav1.3 (Homo sapiens, UniProt Q9NY46); assay: Two pulse assay protocol, Nav1.3; settings: peak current
T5 construct: host or cells: HEK293
Experimental: as §2, §3

human Nav1.6 = molecular target: T6, human Nav1.6 (Homo sapiens, UniProt Q9UQD0); assay: Two pulse assay protocol, Nav1.6; settings: 5 uM, peak current
T6 construct: host or cells: HEK293
Experimental: as §1, §4

human Nav1.7 = molecular target: T7, human Nav1.7 (Homo sapiens, UniProt Q15858); assay: Two pulse assay protocol, Nav1.7; settings: peak current
T7 construct: host or cells: HEK293
Experimental: as §1, §4

human Nav1.8 = molecular target: T8, human Nav1.8 (Homo sapiens, UniProt Q9Y5Y9); assay: Two pulse assay protocol, Nav1.8; settings: peak current
T8 construct: host or cells: HEK293
Experimental: as §1, §4

[3] = pulse 1 (tonic), read-out: percent inhibition hNav1.6, Pulse 1 (5 uM)
[4] = pulse 2 (state-dependent), read-out: percent inhibition hNav1.6, Pulse 2 (5 uM)
[5] = pulse 1 (tonic), read-out: percent inhibition hNav1.7, Pulse 1 (5 uM)
[6] = pulse 2 (state-dependent), read-out: percent inhibition hNav1.7, Pulse 2 (5 uM)
[7] = pulse 1 (tonic), read-out: percent inhibition hNav1.8, Pulse 1 (5 uM)
[8] = pulse 2 (state-dependent), read-out: percent inhibition hNav1.8, Pulse 2 (5 uM)

T8 sequence (Q9Y5Y9 whole entry): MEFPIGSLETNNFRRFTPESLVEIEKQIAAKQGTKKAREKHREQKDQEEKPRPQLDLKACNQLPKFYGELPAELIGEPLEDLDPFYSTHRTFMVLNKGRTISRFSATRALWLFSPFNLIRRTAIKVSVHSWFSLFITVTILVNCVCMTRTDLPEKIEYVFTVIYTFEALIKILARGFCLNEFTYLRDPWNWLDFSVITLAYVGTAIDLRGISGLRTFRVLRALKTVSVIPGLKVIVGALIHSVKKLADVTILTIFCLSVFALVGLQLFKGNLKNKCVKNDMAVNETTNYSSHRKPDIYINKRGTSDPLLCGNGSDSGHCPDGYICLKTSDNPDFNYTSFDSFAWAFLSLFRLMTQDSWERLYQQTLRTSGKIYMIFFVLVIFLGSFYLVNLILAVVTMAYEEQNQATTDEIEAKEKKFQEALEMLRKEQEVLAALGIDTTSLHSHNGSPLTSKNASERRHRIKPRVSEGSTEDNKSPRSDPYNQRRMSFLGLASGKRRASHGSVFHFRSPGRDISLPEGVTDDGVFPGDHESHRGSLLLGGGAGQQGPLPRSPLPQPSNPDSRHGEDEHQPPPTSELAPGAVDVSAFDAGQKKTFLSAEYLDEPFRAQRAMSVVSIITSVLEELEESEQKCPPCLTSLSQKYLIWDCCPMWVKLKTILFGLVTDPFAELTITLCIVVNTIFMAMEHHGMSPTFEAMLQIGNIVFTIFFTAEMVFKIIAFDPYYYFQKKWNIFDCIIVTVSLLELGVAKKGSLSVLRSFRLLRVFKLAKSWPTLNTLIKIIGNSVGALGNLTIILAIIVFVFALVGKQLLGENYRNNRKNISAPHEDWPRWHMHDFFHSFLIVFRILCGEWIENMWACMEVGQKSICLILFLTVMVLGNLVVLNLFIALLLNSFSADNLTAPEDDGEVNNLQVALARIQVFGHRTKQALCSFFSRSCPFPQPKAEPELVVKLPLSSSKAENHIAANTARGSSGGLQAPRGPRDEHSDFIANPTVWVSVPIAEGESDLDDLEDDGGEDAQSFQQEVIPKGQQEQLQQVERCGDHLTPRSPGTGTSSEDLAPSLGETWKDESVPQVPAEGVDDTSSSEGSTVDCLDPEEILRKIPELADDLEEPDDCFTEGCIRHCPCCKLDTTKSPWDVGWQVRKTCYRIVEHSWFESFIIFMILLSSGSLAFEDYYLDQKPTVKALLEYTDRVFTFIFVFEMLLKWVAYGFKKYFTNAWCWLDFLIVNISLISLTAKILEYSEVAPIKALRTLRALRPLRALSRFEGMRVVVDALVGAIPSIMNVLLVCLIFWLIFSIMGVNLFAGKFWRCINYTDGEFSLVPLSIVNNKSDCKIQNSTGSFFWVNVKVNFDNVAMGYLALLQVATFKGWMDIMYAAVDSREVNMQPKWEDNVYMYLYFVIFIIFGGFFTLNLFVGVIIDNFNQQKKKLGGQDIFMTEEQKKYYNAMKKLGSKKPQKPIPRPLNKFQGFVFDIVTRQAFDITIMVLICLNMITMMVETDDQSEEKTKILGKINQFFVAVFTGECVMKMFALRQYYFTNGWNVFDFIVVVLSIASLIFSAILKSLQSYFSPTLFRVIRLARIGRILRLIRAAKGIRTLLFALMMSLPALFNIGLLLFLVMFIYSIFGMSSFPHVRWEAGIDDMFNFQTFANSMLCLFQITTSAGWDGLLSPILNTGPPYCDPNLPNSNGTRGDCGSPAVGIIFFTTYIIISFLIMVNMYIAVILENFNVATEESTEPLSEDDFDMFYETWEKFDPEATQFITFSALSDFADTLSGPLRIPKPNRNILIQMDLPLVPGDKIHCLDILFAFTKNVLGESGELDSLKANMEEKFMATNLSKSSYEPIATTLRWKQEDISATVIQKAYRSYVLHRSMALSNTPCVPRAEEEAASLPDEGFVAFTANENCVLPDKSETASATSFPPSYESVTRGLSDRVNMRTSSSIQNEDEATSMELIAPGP
T7 sequence (Q15858 whole entry): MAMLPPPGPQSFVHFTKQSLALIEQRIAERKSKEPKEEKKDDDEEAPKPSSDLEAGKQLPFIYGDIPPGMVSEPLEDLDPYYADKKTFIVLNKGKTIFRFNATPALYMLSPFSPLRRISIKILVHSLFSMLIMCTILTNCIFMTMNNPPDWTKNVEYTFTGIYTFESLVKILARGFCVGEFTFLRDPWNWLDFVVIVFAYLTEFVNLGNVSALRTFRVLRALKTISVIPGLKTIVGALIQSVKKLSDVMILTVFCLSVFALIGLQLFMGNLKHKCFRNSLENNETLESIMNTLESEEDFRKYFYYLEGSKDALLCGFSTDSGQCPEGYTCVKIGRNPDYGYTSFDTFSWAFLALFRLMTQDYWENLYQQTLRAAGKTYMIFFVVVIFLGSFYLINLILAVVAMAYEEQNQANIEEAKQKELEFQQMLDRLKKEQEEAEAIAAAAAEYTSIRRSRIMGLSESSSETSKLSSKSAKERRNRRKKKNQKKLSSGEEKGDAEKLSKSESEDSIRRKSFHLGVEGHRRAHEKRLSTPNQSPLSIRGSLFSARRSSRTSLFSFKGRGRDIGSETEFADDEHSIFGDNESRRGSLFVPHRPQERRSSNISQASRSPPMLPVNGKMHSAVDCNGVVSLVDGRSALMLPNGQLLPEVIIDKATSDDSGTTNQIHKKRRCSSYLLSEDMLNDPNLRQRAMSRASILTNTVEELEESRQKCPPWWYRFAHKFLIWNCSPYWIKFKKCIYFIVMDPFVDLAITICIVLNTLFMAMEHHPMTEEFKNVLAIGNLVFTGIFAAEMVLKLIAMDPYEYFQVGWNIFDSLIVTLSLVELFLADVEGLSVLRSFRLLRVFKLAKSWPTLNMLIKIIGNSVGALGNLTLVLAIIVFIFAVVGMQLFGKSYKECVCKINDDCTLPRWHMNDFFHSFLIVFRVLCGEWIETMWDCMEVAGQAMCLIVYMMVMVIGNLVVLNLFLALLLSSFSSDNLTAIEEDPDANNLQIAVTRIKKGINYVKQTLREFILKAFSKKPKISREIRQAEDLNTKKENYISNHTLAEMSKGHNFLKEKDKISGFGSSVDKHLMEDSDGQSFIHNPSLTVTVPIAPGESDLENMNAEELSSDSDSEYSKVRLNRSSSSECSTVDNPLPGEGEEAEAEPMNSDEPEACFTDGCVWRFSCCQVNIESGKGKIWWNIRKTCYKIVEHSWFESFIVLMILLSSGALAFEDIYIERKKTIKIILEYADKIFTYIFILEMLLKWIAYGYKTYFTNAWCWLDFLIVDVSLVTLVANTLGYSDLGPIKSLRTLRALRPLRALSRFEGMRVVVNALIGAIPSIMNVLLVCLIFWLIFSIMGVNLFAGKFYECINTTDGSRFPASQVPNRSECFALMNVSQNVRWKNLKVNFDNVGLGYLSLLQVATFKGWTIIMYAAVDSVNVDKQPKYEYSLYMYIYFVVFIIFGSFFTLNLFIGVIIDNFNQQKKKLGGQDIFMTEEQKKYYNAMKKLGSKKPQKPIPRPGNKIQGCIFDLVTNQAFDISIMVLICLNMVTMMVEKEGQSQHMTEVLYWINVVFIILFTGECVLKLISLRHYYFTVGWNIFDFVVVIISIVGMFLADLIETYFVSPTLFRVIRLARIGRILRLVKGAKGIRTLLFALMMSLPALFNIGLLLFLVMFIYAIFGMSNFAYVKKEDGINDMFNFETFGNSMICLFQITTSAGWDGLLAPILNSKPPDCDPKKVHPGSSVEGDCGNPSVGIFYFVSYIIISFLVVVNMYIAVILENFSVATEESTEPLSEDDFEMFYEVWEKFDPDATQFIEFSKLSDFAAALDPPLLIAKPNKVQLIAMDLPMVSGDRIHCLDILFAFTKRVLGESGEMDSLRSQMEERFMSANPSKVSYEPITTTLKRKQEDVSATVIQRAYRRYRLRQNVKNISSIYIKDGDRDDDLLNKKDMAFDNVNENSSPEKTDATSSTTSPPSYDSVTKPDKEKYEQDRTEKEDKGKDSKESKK

inhibition at 5 µM (human Nav1.1; pulse 1 (tonic), read-out: percent inhibition hNav1.1, Pulse 1 (5 uM)) [%] | inhibition at 5 µM (human Nav1.1; pulse 2 (state-dependent), read-out: percent inhibition hNav1.1, Pulse 2 (5 uM)) [%] | inhibition at 5 µM (human Nav1.2; pulse 1 (tonic), read-out: percent inhibition hNav1.2, Pulse 1 (5 uM)) [%] | inhibition at 5 µM (human Nav1.2; pulse 2 (state-dependent), read-out: percent inhibition hNav1.2, Pulse 2 (5 uM)) [%] | inhibition at 5 µM (human Nav1.3; pulse 1 (tonic), read-out: percent inhibition hNav1.3, Pulse 1 (5 uM)) [%] | inhibition at 5 µM (human Nav1.3; pulse 2 (state-dependent), read-out: percent inhibition hNav1.3, Pulse 2 (5 uM)) [%] | inhibition at 5 µM (human Nav1.7; [5]) [%] | inhibition at 5 µM (human Nav1.7; [6]) [%] | Structure (SMILES) | inhibition at 5 min, 5 uM [1] [%] | inhibition at 5 min, 5 µM [2] [%] | inhibition at 5 µM (human Nav1.6; [3]) [%] | inhibition at 5 µM (human Nav1.6; [4]) [%] | inhibition at 5 µM (human Nav1.8; [7]) [%] | inhibition at 5 µM (human Nav1.8; [8]) [%]
< 50 | > 90 | < 50 | > 90 | < 50 | > 90 | < 50 | > 90 | CC(C)Oc1ccc(-c2cnc3ccc(-c4ccc(OC(C)C)nc4)cn23)cc1 [Example C12, 2-(propan-2-yloxy)-5-{3-[4-(propan-2-yloxy)phenyl]imidazo[1,2-a]pyridin-6-yl}pyridine] | > 90 | 50 to 90 | < 50 | > 90 | – | –
– | – | – | – | – | – | – | – | CC(C)Oc1ccc(-c2ccc3ncc(-c4ccc(OC(C)(C)C)cc4)n3c2)cc1 [Example C32, 3-[4-(tert-butoxy)phenyl]-6-[4-(propan-2-yloxy)phenyl]imidazo[1,2-a]pyridine] | > 90 | 50 to 90 | < 50 | > 90 | – | –
– | – | – | – | – | – | < 50 | > 90 | CC(C)Oc1ccc(-c2ccc3ncc(-c4ccc(OC(C)C)nc4)n3c2)cc1 [Example C37, 2-(propan-2-yloxy)-5-{6-[4-(propan-2-yloxy)phenyl]imidazo[1,2-a]pyridin-3-yl}pyridine] | > 90 | < 50 | < 50 | > 90 | < 50 | 50 to 90

Structure (SMILES) | inhibition at 5 µM (human Nav1.1; pulse 1 (tonic), read-out: percent inhibition hNav1.1, Pulse 1 (5 uM)) [%] | inhibition at 5 µM (human Nav1.1; pulse 2 (state-dependent), read-out: percent inhibition hNav1.1, Pulse 2 (5 uM)) [%] | inhibition at 5 µM (human Nav1.2; pulse 1 (tonic), read-out: percent inhibition hNav1.2, Pulse 1 (5 uM)) [%] | inhibition at 5 µM (human Nav1.2; pulse 2 (state-dependent), read-out: percent inhibition hNav1.2, Pulse 2 (5 uM)) [%] | inhibition at 5 µM (human Nav1.3; pulse 1 (tonic), read-out: percent inhibition hNav1.3, Pulse 1 (5 uM)) [%] | inhibition at 5 µM (human Nav1.3; pulse 2 (state-dependent), read-out: percent inhibition hNav1.3, Pulse 2 (5 uM)) [%] | inhibition at 5 µM (human Nav1.7; [5]) [%] | inhibition at 5 µM (human Nav1.7; [6]) [%] | inhibition at 5 min, 5 uM [1] [%] | inhibition at 5 min, 5 µM [2] [%] | inhibition at 5 µM (human Nav1.6; [3]) [%] | inhibition at 5 µM (human Nav1.6; [4]) [%] | inhibition at 5 µM (human Nav1.8; [7]) [%] | inhibition at 5 µM (human Nav1.8; [8]) [%]
Cc1cc2ncc(-c3ccc(OC(C)(C)C)cc3)n2cc1-c1ccc(OC(C)C)cc1 [Example C55, 3-(4-(tert-butoxy)phenyl)-6-(4-isopropoxyphenyl)-7-methylimidazo[1,2-a]pyridine] | – | – | – | – | – | – | < 50 | 50 to 90 | 50 to 90 | < 50 | < 50 | > 90 | < 50 | < 50
